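Method: 48-hour compound exposure of cells in 96-well plates, five concentrations, linear interpolation of endpoints. Here, GI50 denotes the concentration required for 50% inhibition of growth.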 Activity calls are given as the source filed them. No stated cut-off is given here; in the data, active = GI50 up to about 1.1 µM and inactive = higher.
Tests used:
Assay in all cases: growth of human tumour cells (NCI), 48 h
786-0 = system: 786-0
A549 = system: A549
ACHN = system: ACHN
BT-549 = system: BT-549
CAKI-1 = system: CAKI-1
CCRF-CEM = system: CCRF-CEM
COLO 205 = system: COLO 205
DU-145 = system: DU-145
EKVX = system: EKVX
HCC 2998 = system: HCC 2998
HCT-116 = system: HCT-116
HCT-15 = system: HCT-15
HL-60 = system: HL-60
HOP-62 = system: HOP-62
HOP-92 = system: HOP-92
HT-29 = system: HT-29
Hs-578T = system: Hs-578T
IGROV-1 = system: IGROV-1
K562 = system: K562
KM12 = system: KM12
LOX IMVI = system: LOX IMVI
M14 = system: M14
MCF7 = system: MCF7
MDA-MB-231 = system: MDA-MB-231
MDA-MB-435 = system: MDA-MB-435
MDA-N = system: MDA-N
MOLT-4 = system: MOLT-4
Malme-3M = system: Malme-3M
NCI-H226 = system: NCI-H226
NCI-H23 = system: NCI-H23
NCI-H460 = system: NCI-H460
NCI-H522 = system: NCI-H522
NCI/ADR-RES = system: NCI/ADR-RES
OVCAR-3 = system: OVCAR-3
OVCAR-4 = system: OVCAR-4
OVCAR-5 = system: OVCAR-5
OVCAR-8 = system: OVCAR-8
PC-3 = system: PC-3
RPMI-8226 = system: RPMI-8226
RXF 393 = system: RXF 393
SF-268 = system: SF-268
SF-295 = system: SF-295
SF-539 = system: SF-539
SK-MEL-28 = system: SK-MEL-28
SK-MEL-2 = system: SK-MEL-2
SK-MEL-5 = system: SK-MEL-5
SK-OV-3 = system: SK-OV-3
SN12C = system: SN12C
SNB-19 = system: SNB-19
SNB-75 = system: SNB-75
SR = system: SR
SW-620 = system: SW-620
T47D = system: T47D
TK-10 = system: TK-10
U-251 = system: U-251
UACC-257 = system: UACC-257
UACC-62 = system: UACC-62
UO-31 = system: UO-31
A498 = system: A498

## CC(=O)OCc1ccc(O)c(C=O)c1
786-0
  GI50: > 100 µM (inactive)
A549
  GI50: > 100 µM (inactive)
ACHN
  GI50: > 100 µM (inactive)
BT-549
  GI50: > 100 µM (inactive)
CAKI-1
  GI50: > 100 µM (inactive)
CCRF-CEM
  GI50: 46.3 µM (inactive)
COLO 205
  GI50: > 100 µM (inactive)
DU-145
  GI50: > 100 µM (inactive)
EKVX
  GI50: 28.4 µM (inactive)
HCC 2998
  GI50: > 100 µM (inactive)
HCT-116
  GI50: 40.4 µM (inactive)
HCT-15
  GI50: 46.5 µM
HL-60
  GI50: 39.6 µM (inactive)
HOP-62
  GI50: > 100 µM (inactive)
HOP-92
  GI50: 43.3 µM (inactive)
HT-29
  GI50: > 100 µM (inactive)
Hs-578T
  GI50: > 100 µM (inactive)
IGROV-1
  GI50: > 100 µM (inactive)
K562
  GI50: 73.6 µM (inactive)
KM12
  GI50: > 100 µM (inactive)
LOX IMVI
  GI50: > 100 µM (inactive)
M14
  GI50: 25.2 µM (inactive)
MCF7
  GI50: 37.9 µM (inactive)
MDA-MB-231
  GI50: > 100 µM (inactive)
MDA-MB-435
  GI50: > 100 µM (inactive)
MDA-N
  GI50: 64.6 µM (inactive)
MOLT-4
  GI50: 38.3 µM (inactive)
Malme-3M
  GI50: > 100 µM (inactive)
NCI-H226
  GI50: > 100 µM (inactive)
NCI-H23
  GI50: > 100 µM (inactive)
NCI-H460
  GI50: > 100 µM (inactive)
NCI-H522
  GI50: > 100 µM (inactive)
NCI/ADR-RES
  GI50: > 100 µM (inactive)
OVCAR-3
  GI50: > 100 µM (inactive)
OVCAR-4
  GI50: > 100 µM (inactive)
OVCAR-5
  GI50: > 100 µM (inactive)
OVCAR-8
  GI50: 96.2 µM (inactive)
PC-3
  GI50: 88.9 µM (inactive)
RPMI-8226
  GI50: > 100 µM (inactive)
RXF 393
  GI50: > 100 µM (inactive)
SF-268
  GI50: 64.9 µM (inactive)
SF-295
  GI50: > 100 µM (inactive)
SF-539
  GI50: > 100 µM (inactive)
SK-MEL-28
  GI50: > 100 µM (inactive)
SK-MEL-2
  GI50: > 100 µM (inactive)
SK-MEL-5
  GI50: > 100 µM (inactive)
SK-OV-3
  GI50: > 100 µM (inactive)
SN12C
  GI50: 84.3 µM (inactive)
SNB-19
  GI50: 92.3 µM (inactive)
SNB-75
  GI50: > 100 µM (inactive)
SR
  GI50: 60.3 µM (inactive)
SW-620
  GI50: > 100 µM (inactive)
T47D
  GI50: 51.3 µM (inactive)
TK-10
  GI50: > 100 µM (inactive)
U-251
  GI50: 74.8 µM (inactive)
UACC-257
  GI50: > 100 µM (inactive)
UACC-62
  GI50: 71.3 µM (inactive)
UO-31
  GI50: 56.8 µM (inactive)

## N#Cc1sc2c(c1OC(=O)c1ccccc1)c(=O)n(-c1ccccc1)c(=S)n2-c1ccccc1
786-0
  GI50: 30.3 µM (inactive)
A549
  GI50: 29.3 µM (inactive)
BT-549
  GI50: 23.8 µM (inactive)
CAKI-1
  GI50: 35.9 µM (inactive)
CCRF-CEM
  GI50: 19.8 µM (inactive)
COLO 205
  GI50: 16.6 µM (inactive)
DU-145
  GI50: 31 µM (inactive)
EKVX
  GI50: 28.6 µM (inactive)
HCC 2998
  GI50: 25.2 µM (inactive)
HCT-116
  GI50: 19.9 µM (inactive)
HCT-15
  GI50: 18.2 µM
HL-60
  GI50: 24.4 µM (inactive)
HOP-62
  GI50: 18.2 µM (inactive)
HT-29
  GI50: 32.7 µM (inactive)
Hs-578T
  GI50: 14.8 µM (inactive)
IGROV-1
  GI50: 22 µM (inactive)
K562
  GI50: 27.6 µM (inactive)
KM12
  GI50: 19.5 µM (inactive)
LOX IMVI
  GI50: 19.8 µM (inactive)
M14
  GI50: 18.3 µM (inactive)
MCF7
  GI50: 19.2 µM (inactive)
MDA-MB-231
  GI50: 23.9 µM (inactive)
MDA-MB-435
  GI50: 24 µM (inactive)
MDA-N
  GI50: 26.3 µM (inactive)
MOLT-4
  GI50: 20.6 µM (inactive)
Malme-3M
  GI50: 20.5 µM (inactive)
NCI-H226
  GI50: 18.1 µM (inactive)
NCI-H23
  GI50: 21.2 µM (inactive)
NCI-H460
  GI50: 30.3 µM (inactive)
NCI-H522
  GI50: 13.8 µM (inactive)
NCI/ADR-RES
  GI50: 21 µM (inactive)
OVCAR-3
  GI50: 28.1 µM (inactive)
OVCAR-4
  GI50: 21.7 µM (inactive)
OVCAR-8
  GI50: 36.5 µM (inactive)
PC-3
  GI50: 19.5 µM (inactive)
RPMI-8226
  GI50: 23.6 µM (inactive)
RXF 393
  GI50: 14.3 µM (inactive)
SF-268
  GI50: 33.5 µM (inactive)
SF-295
  GI50: 28.2 µM (inactive)
SF-539
  GI50: 23.8 µM (inactive)
SK-MEL-28
  GI50: 25.7 µM (inactive)
SK-MEL-2
  GI50: 28.6 µM (inactive)
SK-MEL-5
  GI50: 15.2 µM (inactive)
SK-OV-3
  GI50: 35.6 µM (inactive)
SN12C
  GI50: 26.4 µM (inactive)
SNB-19
  GI50: 36.1 µM (inactive)
SNB-75
  GI50: > 10 µM (inactive)
SR
  GI50: 30.8 µM (inactive)
SW-620
  GI50: 28.8 µM (inactive)
T47D
  GI50: 16.2 µM (inactive)
TK-10
  GI50: 28.8 µM (inactive)
U-251
  GI50: 20.1 µM (inactive)
UACC-257
  GI50: 35.7 µM (inactive)
UACC-62
  GI50: 19.9 µM (inactive)
UO-31
  GI50: 18.3 µM (inactive)

## O=C1c2cscc2C(=O)C1(O)O
786-0
  GI50: 61.5 µM (inactive)
A498
  GI50: > 100 µM (inactive)
A549
  GI50: > 100 µM (inactive)
ACHN
  GI50: > 100 µM (inactive)
BT-549
  GI50: 31.5 µM (inactive)
CAKI-1
  GI50: 30.8 µM (inactive)
CCRF-CEM
  GI50: 23.7 µM (inactive)
COLO 205
  GI50: 19.2 µM (inactive)
DU-145
  GI50: > 100 µM (inactive)
EKVX
  GI50: 36.1 µM (inactive)
HCT-116
  GI50: 21.3 µM (inactive)
HCT-15
  GI50: 45.8 µM
HL-60
  GI50: 26.1 µM (inactive)
HOP-62
  GI50: > 100 µM (inactive)
HOP-92
  GI50: 31.7 µM (inactive)
HT-29
  GI50: 70 µM (inactive)
Hs-578T
  GI50: > 100 µM (inactive)
IGROV-1
  GI50: > 100 µM (inactive)
K562
  GI50: 33 µM (inactive)
KM12
  GI50: > 100 µM (inactive)
LOX IMVI
  GI50: > 100 µM (inactive)
M14
  GI50: 22.2 µM (inactive)
MCF7
  GI50: > 100 µM (inactive)
MDA-MB-231
  GI50: 74.1 µM (inactive)
MDA-MB-435
  GI50: 32.6 µM (inactive)
MDA-N
  GI50: 40.4 µM (inactive)
MOLT-4
  GI50: 22.5 µM (inactive)
Malme-3M
  GI50: 23.4 µM (inactive)
NCI-H226
  GI50: > 100 µM (inactive)
NCI-H23
  GI50: 22.1 µM (inactive)
NCI-H460
  GI50: > 100 µM (inactive)
NCI-H522
  GI50: 18.7 µM (inactive)
NCI/ADR-RES
  GI50: > 100 µM (inactive)
OVCAR-3
  GI50: 25.2 µM (inactive)
OVCAR-4
  GI50: 25.6 µM (inactive)
OVCAR-5
  GI50: > 100 µM (inactive)
OVCAR-8
  GI50: 32.9 µM (inactive)
PC-3
  GI50: 78 µM (inactive)
RPMI-8226
  GI50: 45 µM (inactive)
SF-268
  GI50: > 100 µM (inactive)
SF-295
  GI50: > 100 µM (inactive)
SF-539
  GI50: > 100 µM (inactive)
SK-MEL-28
  GI50: > 100 µM (inactive)
SK-MEL-2
  GI50: > 100 µM (inactive)
SK-MEL-5
  GI50: > 100 µM (inactive)
SK-OV-3
  GI50: > 100 µM (inactive)
SN12C
  GI50: 20 µM (inactive)
SNB-19
  GI50: > 100 µM (inactive)
SR
  GI50: 19.1 µM (inactive)
SW-620
  GI50: 20.4 µM (inactive)
T47D
  GI50: 18.6 µM (inactive)
TK-10
  GI50: > 100 µM (inactive)
U-251
  GI50: > 100 µM (inactive)
UACC-257
  GI50: 24.9 µM (inactive)
UACC-62
  GI50: > 100 µM (inactive)
UO-31
  GI50: 27.3 µM (inactive)

— ChEMBL document CHEMBL1201862, “PubChem BioAssay data set” (2004)
